Laboratory results from PubChem BioAssay AID248 (DTP/NCI, 2004).
Inconclusive results and toxic doses are left out. No stated cut-off is given here; in the data, active means T/C of 150% or more; inactive means T/C below 125%.

Tested on: L1210 leukemia ip in BDF1 mice, survival T/C
Test: NCI In Vivo Anticancer Drug Screen. Data for tumor model L1210 Leukemia (intraperitoneal) in B6D2F1 (BDF1) mice
Settings: endpoint: mean survival time, higher = longer survival
In short: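 Read-out is survival time, reported as the treated-group measurement over the vehicle-control measurement.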

Measured: T/C

Cc1ccc(S(=O)(=O)N=[N+]=[N-])cc1
inactive: dose: 100.0 mg/kg/injection, schedule: Q01DX001 (ip), vehicle: Klucel (hydroxypropylcellulose) (HPC) 95 % of control | dose: 100.0 mg/kg/injection, schedule: Q01DX009 (ip), vehicle: Klucel (hydroxypropylcellulose) (HPC) 107 % of control | dose: 100.0 mg/kg/injection, schedule: Q04DX003 (ip), vehicle: Klucel (hydroxypropylcellulose) (HPC) 95 % of control | dose: 200.0 mg/kg/injection, schedule: Q01DX001 (ip), vehicle: Klucel (hydroxypropylcellulose) (HPC) 105 % of control | dose: 200.0 mg/kg/injection, schedule: Q01DX009 (ip), vehicle: Klucel (hydroxypropylcellulose) (HPC) 107 % of control | dose: 200.0 mg/kg/injection, schedule: Q04DX003 (ip), vehicle: Klucel (hydroxypropylcellulose) (HPC) 104 % of control | dose: 400.0 mg/kg/injection, schedule: Q01DX001 (ip), vehicle: Klucel (hydroxypropylcellulose) (HPC) 100 % of control | dose: 400.0 mg/kg/injection, schedule: Q01DX009 (ip), vehicle: Klucel (hydroxypropylcellulose) (HPC) 105 % of control | dose: 400.0 mg/kg/injection, schedule: Q04DX003 (ip), vehicle: Klucel (hydroxypropylcellulose) (HPC) 107 % of control

COc1ccc(OC)c(NC(=O)Oc2ccc(Br)cc2Br)c1
inactive: dose: 100.0 mg/kg/injection, schedule: Q04DX002 (ip), vehicle: Klucel (hydroxypropylcellulose) (HPC) 104 % of control | dose: 200.0 mg/kg/injection, schedule: Q04DX002 (ip), vehicle: Klucel (hydroxypropylcellulose) (HPC) 104 % of control | dose: 400.0 mg/kg/injection, schedule: Q04DX002 (ip), vehicle: Klucel (hydroxypropylcellulose) (HPC) 86 % of control

O=[N+]([O-])c1ccc2c(c1)-c1[nH]c3ccccc3c1CS2
inactive: dose: 100.0 mg/kg/injection, schedule: Q01DX001 (ip), vehicle: acetone 100 % of control | dose: 200.0 mg/kg/injection, schedule: Q01DX001 (ip), vehicle: acetone 92 % of control | dose: 400.0 mg/kg/injection, schedule: Q01DX001 (ip), vehicle: acetone 92 % of control

CCCCSP(=S)(OCC)OCC
inactive: dose: 100.0 mg/kg/injection, schedule: Q04DX003 (ip), vehicle: saline with Tween-80 101 % of control | dose: 200.0 mg/kg/injection, schedule: Q04DX003 (ip), vehicle: saline with Tween-80 88 % of control

CCCCC(C)NC1=C(Cl)C(=O)c2ccccc2C1=O (stereo not given)
inactive: dose: 25.0 mg/kg/injection, schedule: Q01DX009 (ip), vehicle: saline with Tween-80 101 % of control | dose: 50.0 mg/kg/injection, schedule: Q01DX009 (ip), vehicle: saline with Tween-80 93 % of control | dose: 100.0 mg/kg/injection, schedule: Q01DX009 (ip), vehicle: saline with Tween-80 87 % of control
